# According to US5922875A, “Aromatic acid diamides with antigastrin activity, a method for their preparation and their pharmaceutical use” (Rotta Research Laboratorium S.p.A., priority 1995, dated 1999):
# pIC50: −log10 of the molar value. Like-named read-outs stand apart in the source and are kept apart here.
# Columns and labels:
# [1] = biological target: T1, type-B cholecystokynin (CCK-B) or gastrin receptors (Oryctolagus cuniculus, UniProt P46627); assay: Inhibition of the gastrin-induced increase of cytosolic calcium in rabbit gastric mucosa cells; type: cell-based
# T1 construct: rabbit gastric mucosa cells were prepared by conventional techniques; endogenous in cells; host or cells: freshly isolated rabbit gastric mucosa cells (collagenase/pronase digestion)
# T1 sequence (P46627 1-452): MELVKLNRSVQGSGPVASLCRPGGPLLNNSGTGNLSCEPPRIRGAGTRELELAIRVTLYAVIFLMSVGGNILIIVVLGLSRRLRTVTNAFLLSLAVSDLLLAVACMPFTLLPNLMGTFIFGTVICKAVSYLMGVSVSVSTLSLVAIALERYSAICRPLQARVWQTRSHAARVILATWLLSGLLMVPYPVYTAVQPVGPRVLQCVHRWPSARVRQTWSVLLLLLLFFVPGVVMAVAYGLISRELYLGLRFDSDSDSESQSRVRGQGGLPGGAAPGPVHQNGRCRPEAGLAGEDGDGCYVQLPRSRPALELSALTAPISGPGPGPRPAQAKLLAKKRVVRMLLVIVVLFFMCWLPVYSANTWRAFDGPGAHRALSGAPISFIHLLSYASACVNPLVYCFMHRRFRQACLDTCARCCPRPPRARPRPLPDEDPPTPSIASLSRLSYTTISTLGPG
# Text: The parietal cells of the gastric mucosa are responsible for the secretion of HCl. They present specific membrane receptors which may be activated by gastrin and which have been defined as type-B cholecystokynin (CCK-B) or gastrin receptors.
# Since it has been observed that the activation of the CCK-B receptors by gastrin results in a raising of the levels of cytosolic calcium ions, a technique has been used for measuring the increase in intracellular calcium induced by gastrin in the presence and absence of the compounds which are the subject of the invention, as an index of the anti-gastrin activity of the compounds themselves.
# Suspensions (0.8×10^6 /ml) of rabbit gastric mucosa cells were prepared by conventional techniques with the use of collagenase and pronase as digestive enzymes; the estimation of the [Ca^2+ ]i values, basal or achieved after stimulation of the cell system was carried out in accordance with Grynkiewicz et al [J.Biol.Chem 260 (1985), 3440]. In the control samples the cells were stimulated with […] while in the samples in which the effect of the compounds in question was evaluated, the cells were incubated therewith before stimulation with gastrin. The results are expressed as percentage increases in [Ca^2+ ]i with respect to the control value. The anti-gastrin activity of the compounds was expressed as the IC50 value, that is, the concentration (in μmoles/liter) at which the response to the stimulus induced by the gastrin was reduced by 50%. The results thus obtained for several compounds of the invention are given in Table 3 which also gives an index formed from the ratio between the peripheral anti-gastrin activity just described and the displacement activity derived from the study of binding to the cortical receptors of guinea pigs described above.
# [2] = biological target: T2, central CCK-B receptor (Cavia porcellus, UniProt H0VZC5); assay: Inhibition of binding of [3H][N-methyl-N-leucine]CCK-8 to guinea pig cortical membranes (anti-CCK-B in vitro)
# T2 construct: The cerebral cortices of male albino guinea pigs were therefore used; from tissue; host or cells: cerebral cortex membranes of male albino guinea pigs
# T2 sequence (H0VZC5 1-426): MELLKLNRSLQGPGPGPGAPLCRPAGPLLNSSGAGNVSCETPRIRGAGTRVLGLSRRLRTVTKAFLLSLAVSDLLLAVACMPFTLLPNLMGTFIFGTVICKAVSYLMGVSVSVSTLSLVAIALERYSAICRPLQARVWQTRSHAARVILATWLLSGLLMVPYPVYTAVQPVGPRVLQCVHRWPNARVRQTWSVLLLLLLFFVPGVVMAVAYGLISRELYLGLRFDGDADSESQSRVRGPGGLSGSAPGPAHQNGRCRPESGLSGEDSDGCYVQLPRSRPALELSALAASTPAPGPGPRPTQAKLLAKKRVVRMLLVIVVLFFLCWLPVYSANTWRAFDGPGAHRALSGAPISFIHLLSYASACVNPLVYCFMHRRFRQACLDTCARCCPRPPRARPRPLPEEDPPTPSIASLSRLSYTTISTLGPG
# Protocol: The capacity of the compounds which are the subject of the invention to interact with the central CCK-B receptor was evaluated with the use of [3-H][N-methyl-N-leucine]CCK-8. […] The cerebral cortices of male albino guinea pigs were therefore used, the method given above being followed with slight modifications [Makovec et al.; Bioorganic & Med. Chem. Letters 3 (5)(1993), 861-866] so as to give a membrane content corresponding to about 300 mcg of protein/mL.
# [3] = tested on: acid secretion induced by pentagastrin; assay: In vivo gastric anti-secretory activity in the anaesthetised rat, pentagastrin stimulation; details: for times more powerful than CR 2194 / times more powerful than cimetidine: ID50 comparison, rat I.V.; for ED50: iv, read-out: Activity (ID50)
# Protocol: Gastric secretion was stimulated by pentagastrin and the method of Lai [Gut 5, (1964), 327-341] was used with slight modifications [Makovec et al, J.Med.Chem. 35 (1992), 28-38].
# Pentagastrin dissolved in physiological saline was perfused for 120 minutes at a rate of 30 mcg/kg/h. After 60 minutes of perfusion (basal stimulation), the product to be tested was administered intravenously (I.V.) in bolus form, perfusion of the stimulant continuing for the remaining 60 minutes. The activity of the product was evaluated as the percentage reduction in acid secreted after the administration of the product with respect to the basal acidity measured in the first 60 minutes, during which time only pentagastrin was present.
# The antagonists tested were administered at different doses in such a way as to enable the ID50 to be calculated, that is, the dose (in mg/kg I.V.) capable of inhibiting the effect of pentagastrin by 50%.
# [4] = tested on: rats; assay: Anxiolytic activity, elevated plus-maze in rats; type: in vivo, rat
# Protocol: It has in fact recently been postulated that the central CCK-B receptor plays an important role in anxiety. This accords with studies also carried out in man which have shown that the central CCK-B mechanisms have an important function in the mediation of panic attacks [Bradwejn, J.et al; J.Psychopharmacology 6 (1992), 345]. In order to confirm this hypothesis, the anxiolytic activities of several of the most powerful CCK-B antagonists of the invention were evaluated by the method of the "elevated plus-maze" in rats, carried out in accordance with Pellow et al. [J. of Neurosc. Meth. 14(1985), 149-167]. A labyrinth was used in which the length of the cross arm was about 45 cm placed at a height from the ground of 70 cm. On this experimental model, a compound having anxiolytic activity produces a percentage increase in the stay time in the open arms and a percentage increase in the number of entries into the open arms.
# The results obtained are given in Table 5 below where the activities obtained with different doses of the compound 4 administered intraperitoneally (IP) are given in comparison with a group of animals treated with a physiological saline in the same way.
# [5] = biological target: T3, cholecystokynin receptor (CCK-A) (Cavia porcellus, UniProt Q63931); assay: Anti-CCK-A activity, guinea pig gall bladder stimulated in vitro by CCK-8; details: selectivity CCK-B vs CCK-A
# T3 construct: The experimental model used was the guinea pig gall bladder stimulated in vitro by CCK-8; from tissue; host or cells: guinea pig gall bladder in vitro
# T3 sequence (Q63931 1-430): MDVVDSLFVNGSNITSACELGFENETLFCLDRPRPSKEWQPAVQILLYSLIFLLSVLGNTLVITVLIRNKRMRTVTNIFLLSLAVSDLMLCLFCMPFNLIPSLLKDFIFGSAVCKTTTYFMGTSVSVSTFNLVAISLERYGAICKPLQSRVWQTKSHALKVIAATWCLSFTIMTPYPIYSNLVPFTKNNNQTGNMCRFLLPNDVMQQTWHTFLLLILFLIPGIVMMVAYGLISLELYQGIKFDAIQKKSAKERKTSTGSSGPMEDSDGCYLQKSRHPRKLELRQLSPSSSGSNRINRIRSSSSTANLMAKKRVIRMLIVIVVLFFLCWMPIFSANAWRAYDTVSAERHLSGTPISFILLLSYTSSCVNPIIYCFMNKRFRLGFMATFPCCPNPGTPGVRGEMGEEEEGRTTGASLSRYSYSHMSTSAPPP
# Text: The experimental model used was the guinea pig gall bladder stimulated in vitro by CCK-8 according to the method described by Makovec et al. [(Arzneim. Forsch/Drug. Res. 35 (7), 1048-1051 (1985)].
# [6] = tested on: CCK-B receptors; details: guinea pigs, Knapp et al. 1990; cited from earlier work
# [7] = cells stimulated with 5×10^-8 gastrin, [Ca2+]i
# [8] = displacement of [3H][N-methyl-N-leucine]CCK-8, cortical membrane in guinea pigs, read-out: IC50
# [9] = I.V. bolus, rat, pentagastrin perfusion
compound,measurement,setting,value
"O=C(O)CC(CC(=O)Nc1cc2ccccc2cc1C(=O)N1CCC2(CCCC2)CC1)c1cccc2ccccc12 (racemic) [Compound 13, 3-(DL)-(1-naphthyl)-5-[2'-carbamoyl(8-azaspiro[4.5]dec-8-yl)]-3'-naphthylamino]-5-oxopentanoic acid]",IC50,[1]; [7],37 nM
same,pIC50,[2]; [8],6.65
same,times more powerful than CR 2194,[3],10-50 times
same,times more powerful than cimetidine,[3],2-10 times
same,ED50,[3]; [9],1 mg/kg
"O=C(O)CC[C@@H](NC(=O)c1cc(Cl)cc(Cl)c1)C(=O)N1CCC2(CCCC2)CC1 [CR 2194, reference compound]",ED50,[3]; [9],11 mg/kg
"CN/C(=N/CCSCc1nc[nH]c1C)NC#N [Cimetidine, cimetidine, reference compound]",ED50,[3]; [9],2.5 mg/kg
Cc1ccc(NC(=O)CC(CC(=O)O)c2cccc3ccccc23)c(C(=O)N2CCC3(CCCC3)CC2)c1 (stereo not drawn) [Compound 3],IC50,[1]; [7],30 nM
same,pIC50,[2]; [8],6.73
Cc1cc(C)c(NC(=O)CC(CC(=O)O)c2cccc3ccccc23)c(C(=O)N2CCC3(CCCC3)CC2)c1 (stereo not drawn) [Compound 4],% Effect VS controls (time),"[4]; 0.03 mg/kg I.P., rat",10.4%
same,% Effect Vs controls (entries),"[4]; 0.03 mg/kg I.P., rat",19.3%
same,Entries to open arm/total entries (%),"[4]; 0.03 mg/kg I.P., rat",36.4%
same,Time in open arm/total time (%),"[4]; 0.03 mg/kg I.P., rat",21.1%
same,% Effect VS controls (time),"[4]; 0.3 mg/kg I.P., rat",47.9%
same,% Effect Vs controls (entries),"[4]; 0.3 mg/kg I.P., rat",39.3%
same,Entries to open arm/total entries (%),"[4]; 0.3 mg/kg I.P., rat",42.5%
same,Time in open arm/total time (%),"[4]; 0.3 mg/kg I.P., rat",28.2%
same,percentage stay time in the open arms compared with controls,"[4]; 0.3 mg/kg I.P., significant vs saline controls",increases the percentage stay time in the open arms
same,% Effect VS controls (time),"[4]; 3.0 mg/kg I.P., rat",4.2%
same,% Effect Vs controls (entries),"[4]; 3.0 mg/kg I.P., rat",11.5%
same,Entries to open arm/total entries (%),"[4]; 3.0 mg/kg I.P., rat",34.0%
same,Time in open arm/total time (%),"[4]; 3.0 mg/kg I.P., rat",19.9%
same,percentage number of entries into the open arm compared with the controls,[4]; dose range 0.03-3 mg/kg I.P.,increases the percentage number of entries into the open arm
same,anxiolytic effect,"[4]; plus maze, rat, I.P.",displays an anxiolytic effect
same,IC50,[1]; [7],4 nM
same,IC50,[1]; gastrin-induced [Ca2+]i in rabbit gastric mucosa cells,4 nM
same,pIC50,[2]; [8],7.62
same,times less active than pentagastrin,[2]; ratio of binding IC50 values,8 times
same,affinity times higher for the gastrin receptor (CCK-B) than for the cholecystokynin receptor (CCK-A),[5],at least 300 times
same,times more powerful than CR 2194,[3],10-50 times
same,times more powerful than cimetidine,[3],2-10 times
same,ED50,[3]; [9],0.2 mg/kg
O=C(O)CC(CC(=O)Nc1c(Cl)cccc1C(=O)N1CCC2(CCCC2)CC1)c1cccc2ccccc12 (stereo not drawn) [Compound 5],ED50,[3]; [9],2.6 mg/kg
O=C(O)CC(CC(=O)Nc1cc(Cl)ccc1C(=O)N1CCC2(CCCC2)CC1)c1cccc2ccccc12 (stereo not drawn) [Compound 6],IC50,[1]; [7],140 nM
same,pIC50,[2]; [8],5.91
COc1cc(NC(=O)CC(CC(=O)O)c2cccc3ccccc23)c(C(=O)N2CCC3(CCCC3)CC2)cc1OC (stereo not drawn) [Compound 10],IC50,[1]; [7],> 300 nM
same,pIC50,[2]; [8],6.09
O=C(O)CCC(NC(=O)c1cccc2ccccc12)C(=O)Nc1cccc(C(=O)N2CCC3(CCCC3)CC2)c1 (stereo not drawn) [Compound 12],pIC50,[2]; [8],< 6.00
same,ED50,[3]; [9],> 10 mg/kg
O=C(O)CC(CC(=O)Nc1cc2ccccc2cc1C(=O)N1CCC2(CC1)OCCO2)c1cccc2ccccc12 (stereo not drawn) [Compound 14],pIC50,[2],5.97
same,ED50,[3]; Rattus norvegicus,7.9 mg/kg
Cc1cc(C)c(NC(=O)CC(CC(=O)O)c2cccc(Cl)c2)c(C(=O)N2CCC3(CCCC3)CC2)c1 (stereo not drawn) [Compound 16],IC50,[1]; [7],82 nM
same,pIC50,[2]; [8],6.40
CN(C(=O)CC(CC(=O)O)c1cccc2ccccc12)c1ccccc1C(=O)N1CCC2(CCCC2)CC1 (stereo not drawn) [Compound 17],pIC50,[2]; [8],< 6.00
O=C(O)CC(CC(=O)Nc1cc2ccccc2cc1C(=O)N1CCC2(CCCCC2)CC1)c1cccc2ccccc12 (stereo not drawn) [Compound 18],IC50,[1]; [7],105 nM
same,pIC50,[2]; [8],6.18
"CSCC[C@H](NC(=O)[C@H](Cc1c[nH]c2ccccc12)NC(=O)CCNC(=O)OC(C)(C)C)C(=O)N[C@@H](CC(=O)O)C(=O)N[C@@H](Cc1ccccc1)C(N)=O [Pentagastrin, reference compound]",pIC50,[2]; [8],8.52
[3-H][N-methyl-N-leucine]CCK-8,affinity times higher for the receptors of the cortex (CCK-B) than those of the pancreas (CCK-A),[6],about 4000 times
